Data from patent US10702527B2, “Combination therapy of transcription inhibitors and kinase inhibitors” (Dana-Farber Cancer Institute, Inc., priority 2015, dated 2020).
Entries after “also recorded” stand apart in the source; their conditions may differ.

Assays:
[1] = system: RT112 cells; assay: Resistance emergence in RT112 cells under BGJ398 treatment (FIG. 1); type: cell-based, human
Source text: One mechanism of resistance may be through the upregulation of NRG1 due to signaling via ERBB2/ERBB3 and is rapid (a matter of days) and reversible (Wang et al., Oncogene, 2015, 34(17):2167-77). The resistance may also be associated with EMT.

[2] = system: RT112 bladder carcinoma cells (FGFR3-dependent); assay: Colony formation assay in RT112 cells; type: cell-based, human; conditions: for colony formation: 4 weeks, crystal violet staining, relative to control; for colony formation, transcription inhibitor alone or in combination with BGJ398: one week, 24-well plate (FIG. 35)
Source text: Media (and drug) were replaced weekly.

[3] = system: gene expression in RT112 cells; assay: RNA-Seq gene expression in RT112 cells; type: cell-based, human; conditions: for gene expression (transcriptional programs) by RNAseq: BGJ398 1 μM, THZ1 100 nM, one or seven days
Description: (§4) RNA was isolated from untreated RT112 cells and RT112 cells treated with 1 μM BGJ398, 100 nM THZ1, or combination treatment with THZ1 plus BGJ398, and similarly, untreated PC9 cells and PC9 cells treated with 1 μM erlotinib, 100 nM THZ1, or THZ1 plus erlotinib. Both cell lines were harvested at two time-points: following one day or seven days of treatment. Cell number was determined and total RNA was isolated using the RNeasy micro kit (Qiagen). Ambion® ERCC RNA Spike-In Mix (Life technology) was added to total RNA. cDNA libraries were prepared using the NEBNext® Ultra™ RNA Library Prep Kit for Illumina (New England Biolabs) according to the manufacturer's instructions. Library integrity was assessed on an Agilent 2100 Bioanalyzer (Agilent). Sequencing was performed on the Hiseq 2000 platform (Illumina) to a minimum depth of 30 million reads per sample.
(§5) QC-passed reads were aligned to the human reference genome (hg19) using PRADA.^46 Transcript per million (TPM) values were determined using RSEM.^47 TPM values were normalized with the voom transformation.^48 Expression changes for each gene in treated cells compared to untreated controls was determined using the limma package^49 as log 2-transformed fold change and a multiple-testing adjusted p-value. Heatmap visualization was performed using R. Log 2-transformed fold changes were not scaled and were colored on a blue-red scale.
(§6) Differentially expressed genes (defined as log 2-fold change value greater than 1.5 or less than −1.5, and p-value less than 0.01) were input into Ingenuity Pathway Analysis (www.ingenuity.com), to identify a) enriched pathways, 2) upstream regulators, andd 3) downstream effectors. […] We considered an activation z-score of greater than [2] to be activated, and less than [−2] to be inhibited. Gene ontology term (GO-term) enrichment analysis was performed using the Database for Annotation, Visualization and Integrated Discovery (DAVID) v6.7 (david.abcc.ncifcrf.gov/).

[4] = system: H3K27Ac enhancer signal in RT112 cells; assay: H3K27Ac ChIP-Seq in RT112 cells; type: cell-based, human; conditions: seven days of treatment, vs DMSO
Description: RT112 and PC9 cells treated for seven days with vehicle, 1 μM BGJ398 and erlotinib (respectively), 100 nM THZ1, or BGJ398/erlotinib in combination with THZ1. H3K27Ac ChIP-Seq was performed using Abcam antibody (cat # AB4729, lot # GR183922-1) as previously described,^8 with minor modifications (cells were crosslinked for 20 min, Dynal magnetic beads (Sigma) were bound with 10 μg of the indicated antibody).
Illumina sequencing libraries were generated and data was processed as described elsewhere.^50 In brief, libraries were generated for ChIP samples following the Illumina TruSeq™ DNA Sample Preparation v2 kit protocol with minor changes. All ChIP-Seq data sets were aligned using bowtie 1.0.1 to build […] of the human genome with -p 4—best -k 2 -m 2—sam -1 40. Wiggle files for gene tracks were created using Macs 1.4.2 with options -w -S -space=50 to count reads in 50 bp bins.
Regions enriched in H3K27Ac were identified using SICER^51 with corresponding input DNA control, and parameters -t 1 (max 1 read per position), -w 200 (window size 200), -i 150 (fragment size), -g 200 (gap size 200; 1 window), -t 0.74 (interrogable genome fraction), -e 200 (e-value), -p 1e-9 (significance p value cutoff). […]
Density of H3K27Ac ChIP-Seq signal (FIG. 51F) was calculated using bamToGFF (github.com/BradnerLab/pipeline). […]

[5] = system: signaling pathways in PC9 cells; assay: Western blot / immunoblot of signaling pathways in PC9 cells; type: cell-based; conditions: 24 hours, erlotinib 1 μM, THZ1 100 nM
Description: (§1) Cells were lysed in RIPA buffer (Roche) containing protease inhibitors (Roche) and Phosphatase Inhibitor Cocktails I and II (CalBioChem). Protein concentrations were determined using a Bradford assay (Bio-Rad). Proteins were separated by SDS gel electrophoresis using NuPAGE 4-12% Bis-Tris gels (Life Technologies) in MOPS buffer. Resolved protein was transferred to nitrocellulose membranes, blocked in 10% milk and probed with primary antibodies recognizing EGFR (2232S), p-EGFR (2234S), FGFR3 (4574S), p-FGFR (3471S), HER2/ERBB2 (2165), p-ERBB2 (2243S), STAT1 (9172), p-STAT1 (9167), STAT3 (4904S), p-STAT3 (9145S), AKT (9272S), p-AKT (4060P), ERK (4695S), p-ERK (4370S), FRA1 (5281S), CDK12 (11973) (all from Cell Signaling Technology), CDK7 (sc-723, Santa Cruz), actin (A5441, Sigma-Aldrich) and vinculin (V9131, Sigma-Aldrich) in 5% milk or 3% bovine serum albumin as recommended by the manufacturer. After incubation with the appropriate secondary antibody (Pierce anti-mouse IgG/IgM (31444, Thermo Scientific) and anti-rabbit IgG (31460, Thermo Scientific)), blots were imaged on film.
(§2) Western blots were used to characterize the signaling pathways in selected cell lines. The assays were performed at 24 hours under the following conditions: untreated, treated with 1 μM erlotinib, treated with 100 nM THZ1, or treated with a combination of erlotinib and THZ1, in PC9 and RT112 cells. These doses were also used in the colony formation assays and the RNAseq and ChIPseq experiments. […] However, it could be blocking the activation of downstream STAT3 targets. […] FGFR is known to be a bypass mechanism in PC9, but this was not seen with THZ1 treatment or with the combination treatment. […] This is unexpected, given that THZ1 should block CDK7-mediated RNAPII phosphorylation. This may be due to the dose or the time point assayed.

[6] = system: signaling pathways in A549 cells; assay: Western blot / immunoblot of signaling pathways in A549 cells; type: cell-based; conditions: 24 hours
Description: as §1
(§3) These two lines were both shown in Sharma et al. (Cell, 2010, 141(1):69-80) to employ the STAT3 feedback loop. p-ERK was decreased in the combination treatment arm. […] Therefore, there are some generalizable findings across the four lines.

[7] = system: gene expression in PC9 cells; assay: RNA-Seq gene expression in PC9 cells; conditions: erlotinib 1 μM, THZ1 100 nM, one or seven days
Description: as §4, §5, §6

[8] = system: signaling pathways in H23 cells; assay: Western blot / immunoblot of signaling pathways in H23 cells; type: cell-based; conditions: 24 hours
Description: as §1, §3

[9] = system: IL-6; assay: IL-6 in PC9 cell culture supernatants (Luminex cytokine assay, ELISA); type: cell-based; conditions: PC9 cells; erlotinib 1 μM, THZ1 100 nM; 24 and 72 hours
Description: A Luminex Multiplex Custom Cytokine assay was used to assay cytokines in RT112 and PC9 cell culture supernatants treated with vehicle, 1 μM BGJ398 or erlotinib respectively, 100 nM THZ1, or THZ1 in combination with BGJ398 or erlotinib, at 24 and 72 hours. Cytokines assayed for were: CCL2/MCP-1, CCL5/RANTES, CXLC5, IL-1 alpha and beta, IL-2, IL-4, IL-5, IL-6, IL-8, IL-10, IL-17a, GM-CSF, TNF-alpha, VEGF, INF-gamma. IL-6 was also assayed in cell culture supernatants using the Quantikine IL-6 ELISA kit (D6050, R&D Systems) as per the manufacturer's protocol.

[10] = system: signaling pathways in RT112 cells; assay: Western blot / immunoblot of signaling pathways in RT112 cells; type: cell-based, human; conditions: 24 hours
Description: as §1
as §2, with “The assays were performed at 24 hours under the following conditions: untreated, treated with 1 μM erlotinib, treated with 100 nM THZ1, or treated with a combination of erlotinib and THZ1, in PC9 and RT112 cells.” left out

[11] = system: EGFR-T790M-L858R; p53-R172H lung tumors; type: in vivo; conditions: TLP mice
Source text: Mice (both male and female) bred to contain conditional EGFR-T790M-L858R lox-stop-lox (LSL) allele and the p53-dominant negative R172H LSL allele to a final genotype of EGFR-T790M-L858R^LSL/−; p53-R172H^LSL/− maintained on a mixed background, were induced at 6 weeks of age with Adenovirus-Cre recombinase by intranasal administration^45 to allow for mediated recombination of lox-stop-lox modified mutant-EGFR and p53 alleles. […] Mice were imaged using a 7 Tesla BioSpec (Bruker Biospin) optimized for image requisition of pulmonary parenchyma and vessels in mice. Animals were anesthetized with 2% isoflurane IsoFlo; Abbott) in 100% oxygen via a nose cone. Respiratory and cardiac gating was applied to minimize motion artifacts during imaging. 24 slices (1 mm) were collected. Tumor volume per animal was quantified manually, based on a minimum of eight consecutive axial image sequences, using the 3D Slicer. […] Investigators were not blinded to group allocation. Mice were imaged biweekly by MRI until end-stage disease to determine tumor volume. Mice weights and signs of toxicity were monitored daily during the course of treatment. End-stage disease was reached when animals acquired clinical symptoms secondary to their lung tumors, in accordance with Dana Farber Cancer Institute Animal Care and Use Committee regulations.

[12] = system: A549 cells (KRAS-mutant NSCLC); conditions: 4 weeks, crystal violet staining
Description: 100,000 cells were seeded in 6-well plates, allowed to adhere overnight, and then incubated with media containing vehicle or drug as indicated for 4 weeks. Media (and drug) were replaced weekly. At 4 weeks plates were, fixed with 1% paraformaldehyde, and then stained with 0.1% crystal violet as previously described (medicine.yale.edu/lab/kim/resources/protocols/cell/crystal- violet_stain.aspx) to assess colony formation. Results were quantified using an ImageJ Colony Area PlugIn.^44

CCN1CCN(c2ccc(Nc3cc(N(C)C(=O)Nc4c(Cl)c(OC)cc(OC)c4Cl)ncn3)cc2)CC1 [BGJ398]
resistance emergence [1]: led to resistance emergence | colony formation [2]: comparable to control | gene expression (transcriptional programs) by RNAseq [3]: transcriptionally distinct from the parental population; also recorded: up-regulated the expression of genes involved in pro-survival programs | gene expression of the top 200 up-regulated genes with BGJ398 treatment ([3]; log2-normalized FPKM, two-tailed t-test): significant increase in gene expression | H3K27Ac ChIP-Seq signal at enhancers [4]: significant increase in H3K27Ac signal

C[C@H](CCC(=O)O)[C@H]1CC[C@H]2[C@@H]3CC[C@@H]4C[C@H](O)CC[C@]4(C)[C@H]3C[C@H](O)[C@]12C [DCA]
colony formation, transcription inhibitor alone or in combination with BGJ398 [2]: modest results, even in combination

C=CC(=O)Nc1cccc(Nc2cc(N3CCCCC3CCO)nc3c(CC)cnn23)c1 (stereo not drawn) [E9]
colony formation, transcription inhibitor alone or in combination with BGJ398 [2]: works as well as THZ1

CN(C)C/C=C/C(=O)Nc1ccc(C(=O)Nc2cccc(Nc3ncc(Cl)c(-c4c[nH]c5ccccc45)n3)c2)cc1 [THZ1]
FRA1 protein levels [5]: nor did it restore FRA1 levels | RNAPII phosphorylation [5]: increase in RNAPII phosphorylation | STAT1 phosphorylation [5]: blocked STAT1 phosphorylation | FGFR activation ([5]; alone or combined): not seen; also recorded: blocked | p-STAT3 (STAT3 phosphorylation/activation) ([5]; alone or combined): does not inhibit the feedback activation of STAT3; also recorded: not blocking the activation of p-STAT3; also recorded: did not affect the phosphorylation status of STAT3 | RNAPII phosphorylation [6]: again increased | gene expression (transcriptional programs) by RNAseq [7]: attenuation of these programs | colony formation [2]: comparable to control | RNAPII phosphorylation [8]: again increased | IL-6 levels in cell culture supernatants [9]: suppressed the increase in IL-6 levels | gene expression (transcriptional programs) by RNAseq [3]: attenuation of these programs | ERBB2 activation [10]: blocked ERBB2 activation | RNAPII phosphorylation [10]: increase in RNAPII phosphorylation | FRA1 protein levels ([10]; BGJ398 1 μM, THZ1 100 nM): nor did it restore FRA1 levels | STAT1 phosphorylation ([10]; BGJ398 1 μM, THZ1 100 nM): blocked STAT1 phosphorylation | p-STAT3 (STAT3 phosphorylation/activation) ([10]; BGJ398 1 μM, THZ1 100 nM, alone or combined): does not inhibit the feedback activation of STAT3; also recorded: did not affect the phosphorylation status of STAT3; also recorded: not blocking the activation of p-STAT3

C=CC(=O)Nc1cccc(Oc2nc(Nc3ccc(N4CCN(C)CC4)cc3OC)ncc2Cl)c1 [WZ4002]
time to end-stage disease [11]: end-stage disease by five weeks | tumor response by MRI at two weeks ([11]; WZ4002 50 mg/kg QD oral gavage): initial response | tumor response by MRI at four weeks ([11]; WZ4002 50 mg/kg QD oral gavage, THZ1 10 mg/kg BID i.p.): rapidly developed resistance and rebounded

C[C@@H](Oc1cc(-c2cnn(C3CCNCC3)c2)cnc1N)c1c(Cl)ccc(F)c1Cl [crizotinib]
colony formation [12]: ineffective
